What was measured:
[1] = test system: HepG2 cells with hepatotoxicity induced by t-BHP; assay: Inhibition of t-BHP-induced hepatotoxicity in cultured hepatocytes; details: HepG2, FIG. 6
[2] = test system: cultured hepatocytes (HepG2); details: human, 100 μM
iNOS, COX2 = assay: iNOS and COX2 mRNA (PCR) in LPS-treated BV2 cells; format: cell-based; details: BV2 cells treated with LPS, FIGS. 3A-3C
Protocol: (§1) In order to investigate the molecular biological mechanism of the anti-inflammatory effect of the single components derived from the licorice extract, the following test was conducted. BV2 cells were treated with an inflammation inducer LPS, after which the extent of inhibition of the increase in proinflammatory cytokines, iNOS ([…]), COX2 (cyclooxygenase-2), etc. by three components (glycyrrhizin, liquiritin and liquiritigenin) was measured based on changes in mRNA using a PCR technique.

[3] = test system: NO production by LPS in BV2 cells; assay: Inhibition of NO production by LPS in BV2 cells; format: cell-based; details: BV2 cells, 10, 20 and 50 μM, after 24 hr, FIG. 2
Protocol: In order to evaluate the anti-inflammatory effects of single components derived from the licorice extract, BV2 cells were treated with glycyrrhizin, liquiritin and liquiritigenin at concentrations of 10, 20 and 50 μM, after which the inhibition of NO production by LPS (Lipopolysaccharide) was measured after 24 hr.

TNF-α, IL-1β, IL-6 = assay: Inflammation-related cytokine mRNA (PCR) in LPS-treated BV2 cells; format: cell-based; details: BV2 cells treated with LPS, FIGS. 4A-4C
Protocol: as §1

[4] = test system: cultured hepatocytes (HepG2); assay: Cell viability of HepG2 cells treated with single components or t-BHP; details: HepG2, t-BHP alone, FIG. 6

| Structure (SMILES) | inhibition of hepatotoxicity induced by t-BHP [1] | cell viability [2] | expression of iNOS and COX2 (mRNA) (iNOS, COX2) | inhibition of NO production by LPS [3] | expression of inflammation-related cytokines (TNF-α, IL-1β, IL-6) (TNF-α, IL-1β, IL-6) | cell viability upon treatment with t-BHP [4] |
| --- | --- | --- | --- | --- | --- | --- |
| O=C1C[C@@H](c2ccc(O[C@@H]3O[C@H](CO)[C@@H](O)[C@H](O)[C@H]3O)cc2)Oc2cc(O)ccc21 [liquiritin] | hepatotoxicity inhibition effects increased with the treatment concentration thereof | ≥ 95% | decreased the expression of iNOS and COX2 more strongly than glycyrrhizin | – | – | – |
| O=C1C[C@@H](c2ccc(O)cc2)Oc2cc(O)ccc21 [liquiritigenin] | hepatotoxicity inhibition effects increased with the treatment concentration thereof | – | also exhibited reduction effects | greatest efficacy | – | – |
| CC1(C)[C@@H](O[C@H]2O[C@H](C(=O)O)[C@@H](O)[C@H](O)[C@H]2O[C@@H]2O[C@H](C(=O)O)[C@@H](O)[C@H](O)[C@H]2O)CC[C@]2(C)[C@H]3C(=O)C=C4[C@@H]5C[C@@](C)(C(=O)O)CC[C@]5(C)CC[C@@]4(C)[C@]3(C)CC[C@@H]12 [glycyrrhizin] | hepatotoxicity inhibition effects increased with the treatment concentration thereof | ≥ 95% | – | – | inhibited more strongly | – |
| CC(C)(C)OO [t-BHP, t-butyl hydroperoxide] | – | – | – | – | – | about 30% |

— patent publication US11096979B2, “Pharmaceutical composition for preventing or treating liver diseases, containing licorice extract containing glycyrrhizin and liquiritin” (NOVAREX CO., LTD., priority 2016, dated 2021)
